Data: patent publication US6413975B1, “Purine derivatives having phosphodiesterase iv inhibition activity” (Euro-Celtique, S.A., priority 1999, dated 2002)
Where a name gives a salt, the structure may show the parent alone. Read-outs that look alike come from different tables or passages of the source.

Legend:
[1] = system: Type IV PDE; experiment: PDE IV inhibition: hydrolysis of [3H]-cyclic AMP by isolated Type IV PDE; type: biochemical, bovine
Procedure: The Type IV PDE is isolated from bovine tracheal smooth muscle using a procedure similar to that previously described by Silver, P. J., Hamel, L. T., Perrone, M. H. Bentley, R. G. Bushover, C. R., Evans, D. B.: Eur. J. Pharmacol. 150:85,1988.(1). Briefly, smooth muscle from bovine trachea is minced and homogenized using a polytron in 10 volumes of an extraction buffer containinhg 10 mM Tris-acetate (pH 7.5), 2 mM magnesium chloride, 1 mM dithiothreitol and 2,000 units/ml of aprotinin. This and all subsequent procedures are performed at 0-4° C. The homogenate is sonicated and then centrifiged at 48,000×g for 30 minutes. The resulting supernatant is applied to a DEAE Trisacryl M column previously equilibrated with sodium acetate and dithiothreitol. After applications of the sample, the column is washed with sodium acetate/dithiothreitol, after which the different forms of PDE are eluted from the column using a linear Tris-HCl/NaCl gradient. Fractions containing Type IV PDE are collected, dialyzed and concentrated to 14% of the original volume. The concentrated fractions are diluted to 50% with ethylene glycol and stored at -20° C.
Enzyme activity is assessed by measuring the hydrolysis of [^3H]-cyclic AMP, as described by Thompson, W. J., Teraski, W. L., Epstein, P. N., Strada, S. J.: Adv. Cyclic Nucleotide Res. 10:69, 1979. The cyclic AMP concentration used in this assay is 0.2 μM, which approximates the Km value. Protein concentration is adjusted to ensure that no more than 15% of the available substrate is hydrolyzed during the incubation period.
All test compounds are dissolved in dimethyl sulfoxide (final concentration of 2.5%). This concentration of dimethyl sulfoxide inhibits enzyme activity by approximately 10%.

[2] = adenines, Table 7, read-out: calc PDE IV IC50
[3] = adenines, Table 4, cyclic AMP 0.2 μM, read-out: calc PDE IV IC50
[4] = thioisoguanines, Table 2, cyclic AMP 0.2 μM, read-out: Calc IC50 PDE IV
[5] = dithioxanthines, Table 5, read-out: IC50 PDE IV

Row | IC50 [1, 2] [µM] | SMILES | further results
1 |  | COc1ccc(Cn2cnc(N)c3nc(C(C)(C)OCc4ccc(F)cc4)nc2-3)cc1OC (as salt: hydrochloride) [6-Amino-3-(3,4-dimethoxybenzyl)-8-(1-(4-fluorobenzyloxy-1-methyl-ethyl)-3H-purine Hydrochloride] | melting point: 172 to 175 °C
2 | 0.005 | COc1ccc(Cn2cnc(N)c3nc(C(C)(C)OCc4ccccc4)nc2-3)cc1OC1CCCC1.Cl [6-Amino-8-(1-benzyloxy-1-methyl-ethyl)-3-(3-cyclopentyloxy-4-methoxy-benzyl)-3H-purine Hydrochloride] | melting point: 201 to 203 °C
3 |  | CCNc1ncn(CC2CC2)c2nc(C3CC3)nc1-2 [8-cyclopropyl-3-cyclopropylmethyl-6-ethylamino-3H-purine hydrochloride] | IC50 [1, 3]: 4.11 µM
4 |  | CCCNc1nc(=S)n(CC)c2nc(C3CC3)[nH]c12 [8-cyclopropyl-3-ethyl-6-propylamino-2-thio-2H-purin-2-one] | IC50 [1, 4]: 8.48 µM
5 |  | CCCCCCn1cnc(NCC)c2ncnc1-2 (as salt: hydrochloride) [6-Ethylamino-3-hexyl-3H-purine] | melting point: 190 to 195 °C
6 |  | CCCn1cnc(NC2CC2)c2nc(C3CC3)nc1-2 [8-cyclopropyl-6-cyclopropylamino-3-propyl-3H-purine hydrochloride] | IC50 [1, 3]: 7.9 µM
7 | 4.48 | CC(C)c1nc2c(NC3(O)CCCC3)ncn(Cc3ccc(Cl)cc3)c-2n1 [3-(4-chlorobenzyl)-6-((1-hydroxy)cyclopentylamino)-8-isopropyl-3H-purine] | 
8 | 0.091 | C=C(C)c1nc2c(N)ncn(Cc3ccc(OC)c(OC4CCCC4)c3)c-2n1 [6-Amino-3-(3-cyclopentyloxy-4-methoxy-benzyl)-8-(1-methylethenyl)-3H-purine] | 
9 | 4.7 | CC(C)c1nc2c(NC3CCCC3)ncn(Cc3ccc(Cl)cc3)c-2n1 [3-(4-chlorobenzyl)-6-cyclopentylamino-8-isopropyl-3H-purine] | 
10 | 2.15 | CCNc1ncn(Cc2cccc(Cl)c2)c2nc(C(C)C)nc1-2 [3-(3-chlorobenzyl)-6-ethylamino-8-isopropyl-3H-purine] | 
11 |  | CCn1c(=S)nc(NC2CCCC2)c2[nH]c(C3CC3)nc21 [3-ethyl-6-cyclopentylamino-8-cyclopropyl-3,7-dihydro-2-thio-2H-purin-2-one] | IC50 [1, 4]: 0.19 µM
12 | 6.5 | CCNc1ncn(-c2ccc(Cl)cc2)c2nc(C(C)C)nc1-2 [3-(4-chlorophenyl)-6-ethylamino-8-isopropyl-3H-purine] | 
13 | 24.5 | CCNc1ncn(Cc2ccc(OC)c(OCc3ccncc3)c2)c2nc(C(C)C)nc1-2 [6-Ethylamino-8-isopropyl-3-[3-(pyridin-4-yl-methoxy)-4-methoxy-benzyl]-3H-purine] | 
14 |  | CCn1c(=S)[nH]c(=S)c2[nH]c(C(C)C)nc21 [3-ethyl-3,7-dihydro-8-isopropyl-2,6-dithio-1H-purine-2,6-dione] | IC50 [1, 5]: 4.1 µM
15 | 0.66 | CCNc1ncn(Cc2ccc(OC)c(OC3CCCC3)c2)c2nc(C(C)C)nc1-2 [6-ethylamino-3-[(3-cyclopentyloxy-4-methoxy)benzyl]-8-isopropyl-3H-purine] | 
16 |  | S=c1[nH]c(=S)n(CC2CC2)c2nc(C3CC3)[nH]c12 [8-cyclopropyl-3-cyclopropylmethyl-3,7-dihydro-2,6-dithio-1H-purine-2,6-dione] | IC50 [1, 5]: 2.27 µM
17 |  | CCn1c(=S)[nH]c(=S)c2[nH]c(C3CC3)nc21 [8-cyclopropyl-3,7-dihydro-3-ethyl-2,6-dithio-1H-purine-2,6-dione] | IC50 [1, 5]: 6.18 µM
18 | 0.25 | COc1ccc(Cn2cnc(N)c3nc(C(C)(C)O)nc2-3)cc1OC1CCCC1 [6-amino-3-[(3-cyclopentyloxy-4-methoxy)benzyl]-8-[(1-hydroxy-1-methyl)ethyl]-3H-purine] | 
19 |  | CC(C)c1nc2c([nH]1)c(NC1CCCC1)nc(=S)n2Cc1ccc(Cl)cc1 [3-(4-chlorobenzyl)-6-cyclopentylamino-3,7-dihydro-8-isopropyl-2-thio-2H-purin-2-one] | IC50 [1, 4]: 114 µM
20 | 2.25 | COc1ccc(Cn2cncc3nc(C(C)(C)O)nc2-3)cc1OC1CCC(O)C1 (stereo not shown) [3-[3-(3-Hydroxy-cyclopentyloxy)-4-methoxy-benzyl]-8-(1-hydroxy-1-methyl-ethyl)-3H-purine] | 

Row | IC50 [1, 2] [µM] | SMILES | further results
21 |  | CCCCn1c(=S)[nH]c(=S)c2[nH]c(C(C)C)nc21 [3-butyl-3,7-dihydro-8-(1-methylethyl)-2,6-dithio-1H-purine-2,6-dione] | IC50 [1, 5]: 5.93 µM
22 | 19.3 | COc1ccc(Cn2cnc(N(C)C)c3nc(C(C)C)nc2-3)cc1OC1CCCC1 [3-(3-cyclopentyloxy-4-methoxybenzyl)-6-dimethylamino-8-isopropyl-3H-purine] | 
23 | 2.73 | CCNc1ncn(Cc2ccc(OC)c(O)c2)c2nc(C(C)C)nc1-2 [6-ethylamino-3-(3-hydroxy-4-methoxybenzyl)-8-isopropyl-3H-purine] | 
24 |  | CC(C)c1nc2c([nH]1)c(=S)[nH]c(=S)n2Cc1ccccc1Cl [3-(2-chlorobenzyl)-3,7-dihydro-8-isopropyl-2,6-dithio-1H-purine-2,6-dione] | IC50 [1, 5]: 7.74 µM
25 | 6.6 | CCNc1ncn(Cc2ccc(OC)c(OCC3CCN(C)CC3)c2)c2nc(C(C)C)nc1-2 [6-Ethylamino-3-[3-(1-methylpiperidin-4-yl-methoxy)-4-methoxy-benzy]-8-isopropyl-3H-purine] | 
26 | 1.3 | CCNc1ncn(Cc2ccc(OC)c(OCc3ccccc3)c2)c2nc(C(C)C)nc1-2 [3-(3-benzyloxy-4-methoxy-benzyl)-6-ethylamino-8-isopropyl-3H-purine] | 
27 |  | CCCCNc1nc(=S)n(CCC)c2nc(C3CC3)[nH]c12 [6-butylamino-8-cyclopropyl-3,7-dihydro-3-propyl-2-thio-2H-purin-2-one] | IC50 [1, 4]: 24.5 µM
28 | 0.31 | COc1ccc(Cn2cnc(N)c3ncnc2-3)cc1OC1CCCC1 [6-Amino-3-(3-cyclopentyloxy-4-methoxybenzyl)-3H-purine] | 
29 |  | CC(C)CCn1c(=S)[nH]c(=S)c2[nH]c(C3CC3)nc21 [8-cyclopropyl-3,7-dihydro-3-(3-methylbutyl)-2,6-dithio-1H-purine-2,6-dione] | IC50 [1, 5]: 6.31 µM
30 |  | CCCn1c(=S)nc(NC2CCCC2)c2[nH]c(C3CC3)nc21 [6-cyclopentylamino-8-cyclopropyl-3,7-dihydro-3-propyl-2-thio-2H-purin-2-one hydrochloride] | IC50 ([1]; read-out: PDE IV I50): 7.41 µM
31 |  | CCCn1cnc(NC2CCCC2)c2nc(C3CC3)nc1-2 [6-Cyclopentylamino-8-cyclopropyl-3-propyl-3H-purine Hydrochloride] | IC50 ([1]; read-out: PDE IV I50): 0.03 µM
32 | 0.44 | CCNc1ncn(Cc2ccc3c(c2)OCO3)c2nc(C(C)C)nc1-2 [6-ethylamino-3-(3-,4-methylenedioxybenzyl)-8-isopropyl-3H-purine] | 
33 |  | CCCn1c(=S)[nH]c(=S)c2[nH]c(C(C)C)nc21 [3,7-dihydro-8-isopropyl-3-propyl-2,6-dithio-1H-purine-2,6-dione] | IC50 [1, 5]: 3.5 µM
34 | 3.7 | C=C(C)c1nc2c(N)ncn(Cc3ccc(OC)c(OC)c3)c-2n1 [6-Amino-3-(3,4-dimethyoxybenzyl)-8-(1-methylethenyl)-3H-purine] | 
35 | 0.31 | CCNc1nc(Cc2ccc(OC)c(OC)c2)[nH]c2nc(C(C)C)nc1-2 [6-ethylamino-2-(3,4-dimethoxybenzyl)-8-isopropyl-3H-purine] | 
36 | 20.8 | CC(C)c1nc2c(N)ncn(Cc3ccc(Cl)cc3)c-2n1 [6-amino-3-(4-chlorobenzyl)-8-isopropyl-3H-purine] | 
37 | 11.2 | CCNc1nc(NCC)n(Cc2ccc(Cl)cc2)c2nc(C(C)C)nc1-2 [3-(4-chlorobenzyl)-2,6-di(ethylamino)-8-isopropyl-3H-purine] | 
38 | 6.4 | COc1ccc(Cn2cnc(N)c3nc(C(C)C)nc2-3)cc1OCc1ccccc1 [6-amino-3-((3-benzyloxy-4-methoxy)-bezyl)-8-isopropyl-3H-purine] | 
39 |  | CC(C)c1nc2c([nH]1)c(=S)[nH]c(=S)n2Cc1ccc(Cl)cc1 [3-(4-chlorobenzyl)-8-isopropyl)-3,7 dihydro-2,6-dithio-3,7-purine-2,6-dione] | IC50 [1, 5]: 2.4 µM; IC50 ([1]; read-out: PDE IV I50): 2.27 µM
40 | 1.85 | CCNc1ncn(Cc2ccc(F)cc2)c2nc(C(C)C)nc1-2 [6-ethylamino-3-(4-fluorobenzyl)-8-isopropyl-3H-purine] | 

Row | SMILES | IC50 [1, 2] [µM] | further results
41 | COc1ccc(Cn2cnc(N)c3nc(C(C)(C)O)nc2-3)cc1OCCCCO [6-amino-3-[3-(4-hydroxybutoxy-4-methoxy)benzyl]-8-(1-hydroxy-1-methylethyl)-3H-purine hydrochloride] | 17.1 | 
42 | CCNc1ncn(Cc2ccc(OC)c(OCCCCO)c2)c2nc(C(C)C)nc1-2 [6-ethylamino-8-isopropyl-3-[(4-methoxy-3-(4-hydroxybutoxy))benzyl]-3H-purine] | 1.75 | 
43 | CCCCOc1cc(Cn2cnc(NCC)c3nc(C(C)C)nc2-3)ccc1OC [6-Ethylamino-3-(3-butoxy-4-methoxy-benzyl)-8-isopropyl-3H purine] | 1.4 | 
44 | COc1ccc(Cn2cnc(N)c3nc(C(C)C)nc2-3)cc1OCCCCO [6-amino-8-isopropyl-3-[(4-methoxy-3-([(4-hydroxybutoxy))benzyl]-3H-purine] | 4.2 | 
